What is called inhibition is the share of the control response that was lost under treatment.

The structures appear in SMILES notation.

A short description of data set [1]: Pro-oxidant activity assessed as bleomycin-Fe3+ complex-induced DNA damage at 1 mg/ml after 1 hr. Type of data set: ADME.
Data set [2] is described as follows: Antioxidant activity assessed as inhibition of ABTS free radical formation at 1 mg/ml by spectroscopic analysis (reference value: 0%). Type of data set: functional.
Another data set deals with Ehrlich. Nature of the data set: In vitro antitumor activity against Mus musculus (mouse) Ehrlich ascites cell assessed as dead tumor cells by trypan blue exclusion test. In kind it is functional.
A short description of data set [3]: Antioxidant activity assessed as inhibition of ABTS free radical formation at 2 mM by spectroscopic analysis (reference value: 0%). In kind it is functional.

As for `N#CCC(=O)Nc1nncs1`, in data set [1], the OD is listed as 0.08. In addition, the inhibition in data set [2] came out at 70.9%.
The matching figures for `Nc1n[nH]cc1C(=O)Nc1nncs1`: 0.102 and 18.9%.
As to `Cc1cc(C)c2c(NN/C=C(\C#N)C(=O)Nc3nncs3)n[nH]c2n1`, the OD in data set [1] was 0.109. Moreover, in the data set on Ehrlich, the ED25 was 5 microg/cm3, the ED50 came out at 10.2 microg/cm3 and the ED100 came to 19 microg/cm3. The inhibition in data set [2] turned out to be 51.8%.
Turning to `Clc1ccc(-c2nnnn2-c2nncs2)cc1`, in the data set with Ehrlich, the ED25 came to 12 microg/cm3, the ED50 was 23 microg/cm3 and the ED100 stood at 41 microg/cm3.
Regarding `N#C/C(=C\c1ccc(N2CCCCC2)cc1)C(=O)Nc1nncs1`, the OD in data set [1] was determined as 0.114. In addition, the inhibition in data set [2] was 28.7%.
Take `Nc1nnc(SCC(=O)Nc2nncs2)s1`: the OD in data set [1] was 0.101. In addition, in the data set with Ehrlich, the ED25 is reported as 14.4 microg/cm3, the ED50 was 27 microg/cm3 and the ED100 was determined as 42.5 microg/cm3. The inhibition in data set [2] came to 20.7%.
For `O=C(Nc1nncs1)c1ccc(Cl)cc1`, in that order: 0.1, 11 microg/cm3, 24 microg/cm3, 52 microg/cm3 and 26.5%.
`O=C1O[C@H]([C@@H](O)CO)C(O)=C1O` [ASCORBIC ACID]: the inhibition in data set [3] is 88.5%. Moreover, the OD in data set [1] was 0.098.
As to `Clc1ccc(CNc2nncs2)cc1`, the OD in data set [1] is reported as 0.108. The inhibition in data set [2] was 0.354%.
In the case of `Nc1nncs1`, the OD in data set [1] was determined as 0.09. Besides, in the data set with Ehrlich, the ED25 is on record as 37 microg/cm3, the ED50 came to 56 microg/cm3 and the ED100 is 92.9 microg/cm3. In addition, the inhibition in data set [2] was determined as 28.5%.
In the case of `Cl/C(=N\c1nncs1)c1ccc(Cl)cc1`, in the data set on Ehrlich, the ED25 turned out to be 6.9 microg/cm3, the ED50 was determined as 13 microg/cm3 and the ED100 is reported as 6.9 microg/cm3.
Regarding `CC1=NN(c2ccccc2)C(=O)/C1=C/c1ccc(Nc2nncs2)cc1`, the OD in data set [1] came out at 0.105. In addition, in the data set with Ehrlich, the ED25 stood at 8.8 microg/cm3, the ED50 is listed as 17 microg/cm3 and the ED100 was found to be 31 microg/cm3. In addition, in data set [2], the inhibition worked out at 41.6%.
For the compound `N#CSCC(=O)Nc1nncs1`, the OD in data set [1] is on record as 0.099. In addition, in data set [2], the inhibition is 25.7%.
On to `O=C(CN1CCN(CC(=O)Nc2nncs2)CC1)Nc1nncs1`, for which, in the data set with Ehrlich, the ED25 came out at 8.7 microg/cm3, the ED50 is on record as 18 microg/cm3 and the ED100 is on record as 37 microg/cm3.
On to `O=C(CNc1nncs1)Nc1nncs1`, for which, in the data set with Ehrlich, the ED25 is 9.4 microg/cm3, the ED50 came out at 18.9 microg/cm3 and the ED100 stood at 39.1 microg/cm3.
For `CN(C)/C=C(\C#N)C(=O)Nc1nncs1`, in data set [1], the OD turned out to be 0.127. Also, in the data set with Ehrlich, the ED25 turned out to be 7.8 microg/cm3, the ED50 is recorded as 14.1 microg/cm3 and the ED100 was determined as 26 microg/cm3. In data set [2], the inhibition came to 23.7%.
For `O=Cc1ccc(Nc2nncs2)cc1`, in that order: 0.1, 8.7 microg/cm3, 17.9 microg/cm3, 38.3 microg/cm3 and 26.5%.
For `O=c1[nH]cc(F)c(=O)[nH]1` [FLUOROURACIL], in the data set with Ehrlich, the ED25 is reported as 40 microg/cm3, the ED50 is reported as 63 microg/cm3 and the ED100 came out at 97 microg/cm3.
With `O=C(CCl)Nc1nncs1`, the OD in data set [1] stood at 0.102. Moreover, in the data set with Ehrlich, the ED25 is listed as 7.8 microg/cm3, the ED50 is 16 microg/cm3 and the ED100 amounted to 28 microg/cm3. Besides, the inhibition in data set [2] is 27.1%.
For the compound `CC1=NN(c2ccccc2)C(=O)/C1=N\Nc1nncs1`, in the data set with Ehrlich, the ED25 is 10 microg/cm3, the ED50 came out at 21 microg/cm3 and the ED100 came to 42.1 microg/cm3.
On to `O=C(CN1CCN(c2ccccc2)CC1)Nc1nncs1`, for which the OD in data set [1] is 0.096. Also, in the data set with Ehrlich, the ED25 worked out at 13 microg/cm3, the ED50 worked out at 24 microg/cm3 and the ED100 came out at 46.1 microg/cm3. In addition, the inhibition in data set [2] turned out to be 25.7%.
Turning to `Cc1cc(C)c2c(n1)nn1c(N)c(C(=O)Nc3nncs3)nnc21`, in the data set with Ehrlich, the ED25 was determined as 25 microg/cm3, the ED50 is recorded as 48.2 microg/cm3 and the ED100 is given as 80.7 microg/cm3.
As for `Clc1ccc(C/N=c2/scnn2Cc2ccc(Cl)cc2)cc1`, the OD in data set [1] amounted to 0.121. In addition, in the data set with Ehrlich, the ED25 is 7.4 microg/cm3, the ED50 is reported as 16 microg/cm3 and the ED100 turned out to be 29 microg/cm3. In addition, the inhibition in data set [2] came out at 38%.
`c1nnc(/N=N/Nc2nncs2)s1`: the OD in data set [1] was determined as 0.103. In the data set with Ehrlich, the ED25 is 19.3 microg/cm3, the ED50 worked out at 33 microg/cm3 and the ED100 was determined as 61.5 microg/cm3. Further, in data set [2], the inhibition was 24.5%.

The record behind these values is ChEMBL document CHEMBL3046931, “Synthesis, antioxidant, and antitumor evaluation of certain new N-substituted-2-amino-1,3,4-thiadiazoles” (Med Chem Res, 2013).
